PMC11822212, “High-throughput screening identifies Aurora kinase B as a critical therapeutic target for Merkel cell carcinoma” (Nature Communications, 2025)
Like-named read-outs stand apart in the source and are kept apart here.

Legend:
[1] = test system: WAGA cells (VP-MCC); assay: qHTS cell viability (CellTiter-Glo, 72 h; primary and follow-up small molecule screen); type: cell-based, human
[2] = test system: HEK293T cells; assay: qHTS cell viability (CellTiter-Glo, 72 h; primary screen), control cell line; type: cell-based, human
[3] = test system: VP-MCC cell lines (WAGA, MKL-1, MKL-2); assay: qHTS cell viability, VP-MCC cell lines as a group (mean AUC, VP.MCC.avg); type: cell-based, human
[4] = test system: MCC13 cells (VN-MCC); assay: qHTS cell viability (CellTiter-Glo, 72 h; primary and follow-up small molecule screen); type: cell-based, human
[5] = test system: NIH-3T3 cells; assay: qHTS cell viability (CellTiter-Glo, 72 h; primary screen), control cell line; type: cell-based, mouse
[6] = test system: VN-MCC cell lines (MCC13, MCC26, UISO); assay: qHTS cell viability, VN-MCC cell lines as a group (mean AUC, VN.MCC.avg); type: cell-based, human
[7] = test system: HACAT cells; assay: qHTS cell viability (CellTiter-Glo, 72 h; primary screen), control cell line; type: cell-based, human
[8] = test system: MKL-2 cells (VP-MCC); assay: qHTS cell viability (CellTiter-Glo, 72 h; primary and follow-up small molecule screen); type: cell-based, human
[9] = test system: MKL-1 cells (VP-MCC); assay: as above; type: cell-based, human
[10] = test system: UISO cells (VN-MCC); assay: as above; type: cell-based, human
[11] = test system: MCC26 cells (VN-MCC); assay: as above; type: cell-based, human
[12] = test system: six MCC cell lines and four control cell lines; assay: qHTS cell viability, all 10 cell lines screened; type: cell-based
[13] = test system: control cell lines (HACAT, HEK293T, CRL-7250, NIH-3T3); assay: qHTS cell viability, control cell lines as a group (mean AUC, Control.avg); type: cell-based
[14] = test system: CRL-7250 cells; assay: qHTS cell viability (CellTiter-Glo, 72 h; primary screen), control cell line; type: cell-based
[15] = test system: MCC cell lines (WAGA, MKL-1, MKL-2, MCC13, MCC26, UISO); assay: qHTS cell viability, all six MCC cell lines as a group (mean AUC, MCC.avg); type: cell-based, human
[16] = MIPE library, 11-point DRC, sheet S2E
[17] = MIPE library, 11-point DRC, control cell line, sheet S2E
[18] = MIPE library, Control AUC minus VP-MCC AUC (therapeutic window), sheet S2E
[19] = MIPE library, mean AUC of VP-MCC cell lines, sheet S2E
[20] = MIPE library, Control AUC minus VN-MCC AUC (therapeutic window), sheet S2E
[21] = MIPE library, mean AUC of VN-MCC cell lines, sheet S2E
[22] = MIPE library, Control AUC minus MCC AUC (therapeutic window), sheet S2E
[23] = MIPE library, mean AUC of control cell lines, sheet S2E
[24] = MIPE library, mean AUC of six MCC cell lines, sheet S2E

## COc1ccc(C(=O)CC(=O)c2ccc(C(C)(C)C)cc2)cc1
[1]; [16]
  WAGA_AUC: 305.979
[1]; area under the dose-response curve, WAGA cells, AUC<450 = reduced viability
  WAGA_AUC: 381.481
[2]; [17]
  HEK293T_AUC: 472.366
[2]; area under the dose-response curve, HEK293T control cells; AUC<450 = reduced viability
  HEK293T_AUC: 465.048
[3]; [18]
  Control-VP-MCC: 140.718
[3]; [19]
  VP-MCC_Avg_AUC: 319.984
[4]; [16]
  MCC13_AUC: 495.434
[4]; area under the dose-response curve, MCC13 cells, AUC<450 = reduced viability
  MCC13_AUC: 482.294
[5]; [17]
  NIH3T3_AUC: 477.589
[5]; area under the dose-response curve, NIH3T3 control cells, AUC<450 = reduced viability
  NIH3T3_AUC: 482.946
[6]; [20]
  Control-VN-MCC: -9.242
[6]; [21]
  VN-MCC_Avg_AUC: 469.944
[7]; [17]
  HACAT_AUC: 476.58
[7]; area under the dose-response curve, HACAT control cells, AUC<450 = reduced viability
  HACAT_AUC: 467.786
[8]; [16]
  MKL2_AUC: 314.76
[8]; area under the dose-response curve, MKL-2 cells, AUC<450 = reduced viability
  MKL2_AUC: 386.921
[9]; [16]
  MKL1_AUC: 339.212
[9]; area under the dose-response curve, MKL-1 cells, AUC<450 = reduced viability
  MKL1_AUC: 411.648
[10]; [16]
  UISO_AUC: 429.371
[10]; area under the dose-response curve, UISO cells, AUC<450 = reduced viability
  UISO_AUC: 482.124
[11]; [16]
  MCC26_AUC: 485.026
[11]; area under the dose-response curve, MCC26 cells; AUC<450 = reduced viability
  MCC26_AUC: 481.864
[12]; [22]
  Control-MCC: 65.7381
[13]; [23]
  Control_Avg_AUC: 460.702
[14]; [17]
  CRL7250_AUC: 416.272
[14]; area under the dose-response curve, CRL7250 control cells, AUC<450 = reduced viability
  CRL7250_AUC: 453.419
[15]; [24]
  MCC_Avg_AUC: 394.964

## COc1cc(C[C@@H](C)N)c(OC)cc1C.Cl
[1]
  WAGA_AUC: 120.519
[2]
  HEK293T_AUC: 304.503
[3]
  Control-VP-MCC: 255.371
  VP-MCC_Avg_AUC: 79.8375
[4]
  MCC13_AUC: 469.394
[5]
  NIH3T3_AUC: 358.481
[6]
  Control-VN-MCC: -98.1417
  VN-MCC_Avg_AUC: 433.35
[7]
  HACAT_AUC: 438.262
[8]
  MKL2_AUC: 72.1855
[9]
  MKL1_AUC: 46.808
[10]
  UISO_AUC: 418.828
[11]
  MCC26_AUC: 411.829
[12]
  Control-MCC: 78.6147
[13]
  Control_Avg_AUC: 335.209
[14]
  CRL7250_AUC: 239.588
[15]
  MCC_Avg_AUC: 256.594

## C#C[C@]1(OC(C)=O)CC[C@H]2[C@@H]3CCC4=CC(=NO)CC[C@@H]4[C@H]3CC[C@@]21CC (mixture of isomers) [Norgestimate]
[1]; NPC library, qHTS dose-response AUC, WAGA
  WAGA_AUC: 384.002
[2]; NPC library, qHTS dose-response AUC, HEK293T control
  HEK293T_AUC: 418.546
[2]; NPC library; qHTS dose-response AUC, HEK293T control
  HEK293T_AUC: 418.545
[3]; Control AUC minus VP-MCC AUC
  Control-VP-MCC: 61.2604
[3]; NPC library, mean AUC of VP-MCC cell lines
  VP-MCC_Avg_AUC: 399.323
[3]; NPC library, therapeutic window: Control avg AUC minus VP-MCC avg AUC
  Control-VP-MCC: 61.2604
[4]; NPC library, qHTS dose-response AUC, MCC13
  MCC13_AUC: 443.22
[5]; NPC library, qHTS dose-response AUC, NIH3T3 control
  NIH3T3_AUC: 462.903
[6]; Control AUC minus VN-MCC AUC
  Control-VN-MCC: 41.6867
[6]; NPC library, mean AUC of VN-MCC cell lines
  VN-MCC_Avg_AUC: 418.896
[6]; NPC library, therapeutic window: Control avg AUC minus VN-MCC avg AUC
  Control-VN-MCC: 41.6867
[7]; NPC library, qHTS dose-response AUC, HACAT control
  HACAT_AUC: 469.318
[8]; NPC library, qHTS dose-response AUC, MKL2
  MKL2_AUC: 415.787
[9]; NPC library, qHTS dose-response AUC, MKL1
  MKL1_AUC: 398.179
[10]; NPC library, qHTS dose-response AUC, UISO
  UISO_AUC: 417.397
[11]; NPC library, qHTS dose-response AUC, MCC26
  MCC26_AUC: 396.072
[11]; NPC library; qHTS dose-response AUC, MCC26
  MCC26_AUC: 396.073
[12]; NPC library, therapeutic window: Control avg AUC minus MCC avg AUC
  Control-MCC: 51.4735
[13]; NPC library, mean AUC of control cell lines
  Control_Avg_AUC: 460.583
[14]; NPC library, qHTS dose-response AUC, CRL7250 control
  CRL7250_AUC: 491.565
[15]; NPC library, mean AUC of all 6 MCC cell lines
  MCC_Avg_AUC: 409.11
[15]; NPC library, mean AUC of six MCC cell lines
  MCC_Avg_AUC: 409.109

## C=C1/C(=C\C=C2/CCC[C@]3(C)[C@@H]([C@H](C)/C=C/[C@H](C)C(C)C)CC[C@@H]23)C[C@@H](O)C[C@@H]1O [1-alpha-Hydroxyergocalciferol]
[1]; [16]
  WAGA_AUC: 235.191
[2]; [17]
  HEK293T_AUC: 473.524
[3]; [18]
  Control-VP-MCC: 133.527
[3]; [19]
  VP-MCC_Avg_AUC: 294.68
[4]; [16]
  MCC13_AUC: 466.906
[5]; [17]
  NIH3T3_AUC: 349.858
[6]; [20]
  Control-VN-MCC: 0.7959
[6]; [21]
  VN-MCC_Avg_AUC: 427.411
[7]; [17]
  HACAT_AUC: 470.948
[8]; [16]
  MKL2_AUC: 310.498
[9]; [16]
  MKL1_AUC: 338.352
[10]; [16]
  UISO_AUC: 386.134
[11]; [16]
  MCC26_AUC: 429.194
[12]; [22]
  Control-MCC: 67.1615
[13]; [23]
  Control_Avg_AUC: 428.207
[14]; [17]
  CRL7250_AUC: 418.5
[15]; [24]
  MCC_Avg_AUC: 361.046

## CC1(C)CCC(c2ccc(Cl)cc2)=C(CN2CCN(c3ccc(C(=O)N[S+](=O)([O-])c4ccc(N[C@H](CCN5CCOCC5)CSc5ccccc5)c([S+](=O)([O-])C(F)(F)F)c4)cc3)CC2)C1 [ABT-263 (Navitoclax)]
[1]; [16]
  WAGA_AUC: 250.192
[2]; [17]
  HEK293T_AUC: 470.677
[3]; [18]
  Control-VP-MCC: 189.019
[3]; [19]
  VP-MCC_Avg_AUC: 272.305
[4]; [16]
  MCC13_AUC: 470.158
[5]; [17]
  NIH3T3_AUC: 462.454
[6]; [20]
  Control-VN-MCC: -31.9962
[6]; [21]
  VN-MCC_Avg_AUC: 493.32
[7]; [17]
  HACAT_AUC: 444.442
[8]; [16]
  MKL2_AUC: 277.677
[9]; [16]
  MKL1_AUC: 289.046
[10]; [16]
  UISO_AUC: 533.391
[11]; [16]
  MCC26_AUC: 476.41
[12]; [22]
  Control-MCC: 78.5112
[13]; [23]
  Control_Avg_AUC: 461.324
[14]; [17]
  CRL7250_AUC: 467.721
[15]; [24]
  MCC_Avg_AUC: 382.812

## CN(C)CC[C@H](CSc1ccccc1)Nc1ccc(S(=O)(=O)NC(=O)c2ccc(N3CCN(Cc4ccccc4-c4ccc(Cl)cc4)CC3)cc2)cc1[N+](=O)[O-] [ABT-737]
[1]; [16]
  WAGA_AUC: 285.196
[2]; [17]
  HEK293T_AUC: 444.395
[3]; [18]
  Control-VP-MCC: 140.507
[3]; [19]
  VP-MCC_Avg_AUC: 302.738
[4]; [16]
  MCC13_AUC: 474.092
[5]; [17]
  NIH3T3_AUC: 431.249
[6]; [20]
  Control-VN-MCC: -34.4381
[6]; [21]
  VN-MCC_Avg_AUC: 477.683
[7]; [17]
  HACAT_AUC: 430.037
[8]; [16]
  MKL2_AUC: 288.506
[9]; [16]
  MKL1_AUC: 334.511
[10]; [16]
  UISO_AUC: 486.905
[11]; [16]
  MCC26_AUC: 472.052
[12]; [22]
  Control-MCC: 53.0346
[13]; [23]
  Control_Avg_AUC: 443.245
[14]; [17]
  CRL7250_AUC: 467.3
[15]; [24]
  MCC_Avg_AUC: 390.211

## COCC1(CO)C(=O)C2CCN1CC2 (centres unmarked) [APR-246]
[1]; [16]
  WAGA_AUC: 329.393
[2]; [17]
  HEK293T_AUC: 390.353
[3]; [18]
  Control-VP-MCC: 94.289
[3]; [19]
  VP-MCC_Avg_AUC: 335.282
[4]; [16]
  MCC13_AUC: 460.845
[5]; [17]
  NIH3T3_AUC: 403.185
[6]; [20]
  Control-VN-MCC: -20.9457
[6]; [21]
  VN-MCC_Avg_AUC: 450.517
[7]; [17]
  HACAT_AUC: 475.968
[8]; [16]
  MKL2_AUC: 331.652
[9]; [16]
  MKL1_AUC: 344.8
[10]; [16]
  UISO_AUC: 425.775
[11]; [16]
  MCC26_AUC: 464.929
[12]; [22]
  Control-MCC: 36.6717
[13]; [23]
  Control_Avg_AUC: 429.571
[14]; [17]
  CRL7250_AUC: 448.778
[15]; [24]
  MCC_Avg_AUC: 392.899
